From patent US9676721B2, “Compounds and compositions for the inhibition of NAMPT” (FORMA TM, LLC, priority 2010, dated 2017) come the findings set out here.

As a reminder, the IC50 is the concentration that inhibits the measured activity by half.

One experiment deals with A2780 cells. In words: In-Vitro Cell Proliferation Assay (SRB). In kind it is cell-based. The note with it: Homo sapiens, A2780, 72 h. As to the method:
In-Vitro Cell Proliferation Assay […] After overnight incubation at 37° C. and 5% CO2, the compound titrations were performed in a separate dilution plate by serially diluting the compounds in DMSO to make a 1000× stock. The compounds were then further diluted to 10× final concentration in culture media, whereupon 20 μL of each dilution was added to the plated cells with controls (e.g. DMSO and blank) to make a final volume of 200 μL. The final DMSO concentration in each well was 0.1%. The plates were then incubated for 72 hours at 37° C. in a 5% CO2 incubator. The number of viable cells was then assessed using sulforhodamine B (SRB) assay. Cells were fixed at 4° C. for 1 hour with the addition of 50 μL 30% trichloroacetic acid (TCA) to make a final concentration of 6% TCA. The plates were washed four times with H2O and allowed to dry for at least 1 hour, whereupon 100 μL of a […] SRB in 1% acetic acid solution was added to each well and incubated at room temperature for at least 30 minutes. The plates were then washed three times with 1% acetic acid, dried, and treated with 100 μL of 10 mM Tris-Base solution. The plates were then read in a microplate reader at an absorbance of 570 nm. Background was generated on a separate plate with media only. Method for Determining % Inhibition First, the signals from the background plate are averaged, then the background was subtracted from the test plates. […] Formula for Determining IC50 Values: […] Specificity of Cytotoxicity. Inhibition of NAMPT could be reversed by the addition of NAM or NMN. The specificity of the compounds were determined via cell viability assay in the presence of the compound and either NAM or NMN. Percent inhibitions were determined using the method given above.

For the next experiment, the target named is NAMPT (Homo sapiens (Human), UniProt P43490). In words: Biochemical Inhibition Assay (NAMPT enzymatic reaction, NMN by mass spectrometry). The note with it: recombinant His-tagged NAMPT 33 nM, 1 μM NAM, 30 minutes; read-out: Biochem IC50. As to the method:
Biochemical Inhibition Assay NAMPT Protein Purification Recombinant His-tagged NAMPT was produced in E. coli cells, purified over a Ni column, and further purified over a size-exclusion column by XTAL Biostructures. The NAMPT Enzymatic Reaction The NAMPT enzymatic reactions were carried out in Buffer A (50 mM Hepes pH 7.5, 50 mM NaCl, 5 mM MgCl2, and 1 mM THP) in 96-well V-bottom plates. The compound titrations were performed in a separate dilution plate by serially diluting the compounds in DMSO to make a 100× stock. […] Background and signal strength was determined by addition (or non-addition) of a serial dilution of NMN to a pre-quenched enzyme and cofactor mix. Quantification of NMN A mass spectrometry-based assay was used to measure the NAMPT reaction product (NMN) and the internal control (L-Cystathionine). NMN and L-Cystathionine were detected using the services of Biocius Lifesciences with the RapidFire system. In short, the NMN and L-Cystathionine are bound to a graphitic carbon cartridge in 0.1% formic acid, eluted in 30% acetonitrile buffer, and injected into a Sciex 4000 mass spectrometer. The components of the sample were ionized with electrospray ionization and the positive ions were detected. […] The fragments are quantified and the analyzed by the following method. % Inhibitions are Determined Using this Method. First the NMN signal is normalized to the L-Cystathionine signal by dividing the NMN signal by the L-Cystathionine signal for each well. The signal from the background wells are averaged and subtracted from the test plates. […] IC50s are Determined Using Excel and this Formula.

Chain of NAMPT (P43490 whole entry): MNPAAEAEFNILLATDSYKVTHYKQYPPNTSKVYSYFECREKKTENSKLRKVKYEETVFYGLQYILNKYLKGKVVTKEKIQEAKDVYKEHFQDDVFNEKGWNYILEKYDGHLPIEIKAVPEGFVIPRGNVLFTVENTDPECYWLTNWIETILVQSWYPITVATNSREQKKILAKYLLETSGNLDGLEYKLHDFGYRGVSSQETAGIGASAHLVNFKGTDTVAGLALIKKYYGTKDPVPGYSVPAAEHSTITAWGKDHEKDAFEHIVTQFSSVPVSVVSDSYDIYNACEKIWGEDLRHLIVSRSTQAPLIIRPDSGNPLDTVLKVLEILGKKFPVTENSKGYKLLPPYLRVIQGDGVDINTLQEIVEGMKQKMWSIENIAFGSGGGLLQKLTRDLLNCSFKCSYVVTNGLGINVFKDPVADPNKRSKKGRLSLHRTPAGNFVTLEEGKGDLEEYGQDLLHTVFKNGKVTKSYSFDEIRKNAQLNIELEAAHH

As for `COc1ccccc1S(=O)(=O)c1ccc(CNC(=NC#N)Nc2ccncc2)cc1` [2-cyano-1-({4-[(2-methoxybenzene)sulfonyl]phenyl}methyl)-3-(pyridin-4-yl)guanidine], the IC50 in the experiment on A2780 cells is 3.9 nM; at NAMPT it was 7.2 nM.
In the same order, the values of `Cc1ccccc1S(=O)(=O)c1ccc(CNC(=NC#N)Nc2ccncc2)cc1` [2-cyano-1-({4-[(2-methylbenzene)sulfonyl]phenyl}methyl)-3-(pyridin-4-yl)guanidine] are 5.6 nM and 7.9 nM.
For `N#CN=C(NCc1ccc(S(=O)(=O)c2ccc(Cl)c(Cl)c2)cc1)Nc1ccncc1` [2-cyano-1-({4-[(3,4-dichlorobenzene)sulfonyl]phenyl}methyl)-3-(pyridin-4-yl)guanidine] the same measures were 1 nM and 1.7 nM.
In the same order, the values of `N#CN=C(NCc1ccc(S(=O)(=O)c2ccc(F)c(F)c2)cc1)Nc1ccncc1` [2-cyano-1-({4-[(3,4-difluorobenzene)sulfonyl]phenyl}methyl)-3-(pyridin-4-yl)guanidine] are 2.5 nM and 0.8 nM.
`COc1ccc(S(=O)(=O)c2ccc(CNC(=NC#N)Nc3ccncc3)cc2)cc1OC` [2-cyano-1-({4-[(3,4-dimethoxybenzene)sulfonyl]phenyl}methyl)-3-(pyridin-4-yl)guanidine]: the IC50 was found to be 3.4 nM with A2780 cells and 4 nM at NAMPT.
Take `Cc1ccc(S(=O)(=O)c2ccc(CNC(=NC#N)Nc3ccncc3)cc2)cc1C` [2-cyano-1-({4-[(3,4-dimethylbenzene)sulfonyl]phenyl}methyl)-3-(pyridin-4-yl)guanidine]: the IC50 in the experiment on A2780 cells was 1.2 nM; on NAMPT, 2.2 nM.
In the same order, the values of `N#CN=C(NCc1ccc(S(=O)(=O)c2cc(Cl)cc(Cl)c2)cc1)Nc1ccncc1` [2-cyano-1-({4-[(3,5-dichlorobenzene)sulfonyl]phenyl}methyl)-3-(pyridin-4-yl)guanidine] are 1.6 nM and 11.2 nM.
For `N#CN=C(NCc1ccc(S(=O)(=O)c2cc(F)cc(F)c2)cc1)Nc1ccncc1` [2-cyano-1-({4-[(3,5-difluorobenzene)sulfonyl]phenyl}methyl)-3-(pyridin-4-yl)guanidine] the same measures were 2 nM and 1 nM.
In the same order, the values of `Cc1cc(C)cc(S(=O)(=O)c2ccc(CNC(=NC#N)Nc3ccncc3)cc2)c1` [2-cyano-1-({4-[(3,5-dimethylbenzene)sulfonyl]phenyl}methyl)-3-(pyridin-4-yl)guanidine] are 1.6 nM and 3.3 nM.
On to `N#CN=C(NCc1ccc(S(=O)(=O)c2cccc(C#N)c2)cc1)Nc1ccncc1` [2-cyano-1-({4-[(3-cyanobenzene)sulfonyl]phenyl}methyl)-3-(pyridin-4-yl)guanidine], for which the values for the concentration for half-maximal inhibition (IC50) in the experiment with A2780 cells and at NAMPT were 6.2 nM and 1.7 nM, respectively.
For `CCOc1cccc(S(=O)(=O)c2ccc(CNC(=NC#N)Nc3ccncc3)cc2)c1` [2-cyano-1-({4-[(3-ethoxybenzene)sulfonyl]phenyl}methyl)-3-(pyridin-4-yl)guanidine] the same measures were 6.5 nM and 4.3 nM.
As for `COc1ccc(S(=O)(=O)c2ccc(CNC(=NC#N)Nc3ccncc3)cc2)cc1F` [2-cyano-1-({4-[(3-fluoro-4-methoxybenzene)sulfonyl]phenyl}methyl)-3-(pyridin-4-yl)guanidine], the IC50 in the experiment on A2780 cells was determined as 2 nM; on NAMPT it was 1 nM.
For `Cc1ccc(S(=O)(=O)c2ccc(CNC(=NC#N)Nc3ccncc3)cc2)cc1F` [2-cyano-1-({4-[(3-fluoro-4-methylbenzene)sulfonyl]phenyl}methyl)-3-(pyridin-4-yl)guanidine] the same measures were 6.2 nM and 14.8 nM.
For `COc1cc(F)cc(S(=O)(=O)c2ccc(CNC(=NC#N)Nc3ccncc3)cc2)c1` [2-cyano-1-({4-[(3-fluoro-5-methoxybenzene)sulfonyl]phenyl}methyl)-3-(pyridin-4-yl)guanidine] the same measures were 2.1 nM and 2.3 nM.
For `Cc1cc(F)cc(S(=O)(=O)c2ccc(CN/C(=N\C#N)Nc3ccncc3)cc2)c1` [2-cyano-1-({4-[(3-fluoro-5-methylbenzene)sulfonyl]phenyl}methyl)-3-(pyridin-4-yl)guanidine] the same measures were 3.3 nM and 1.7 nM.
Take `N#CN=C(NCc1ccc(S(=O)(=O)c2cccc(F)c2)cc1)Nc1ccncc1` [2-cyano-1-({4-[(3-fluorobenzene)sulfonyl]phenyl}methyl)-3-(pyridin-4-yl)guanidine]: the IC50 in the experiment on A2780 cells stood at 14.5 nM; at NAMPT it was 3.2 nM.
On to `COc1cc(S(=O)(=O)c2ccc(CNC(=NC#N)Nc3ccncc3)cc2)ccc1C` [2-cyano-1-({4-[(3-methoxy-4-methylbenzene)sulfonyl]phenyl}methyl)-3-(pyridin-4-yl)guanidine], for which the figures for the IC50 in the experiment with A2780 cells and on NAMPT were 0.8 nM and 1.2 nM, respectively.
In the same order, the values of `COc1cccc(S(=O)(=O)c2ccc(CNC(=NC#N)Nc3ccncc3)cc2)c1` [2-cyano-1-({4-[(3-methoxybenzene)sulfonyl]phenyl}methyl)-3-(pyridin-4-yl)guanidine] are 3.4 nM and 1.5 nM.
In the same order, the values of `Cc1cccc(S(=O)(=O)c2ccc(CNC(=NC#N)Nc3ccncc3)cc2)c1` [2-cyano-1-({4-[(3-methylbenzene)sulfonyl]phenyl}methyl)-3-(pyridin-4-yl)guanidine] are 4.6 nM and 5.2 nM.
In the same order, the values of `N#CN=C(NCc1ccc(S(=O)(=O)c2ccc(C#N)cc2)cc1)Nc1ccncc1` [2-cyano-1-({4-[(4-cyanobenzene)sulfonyl]phenyl}methyl)-3-(pyridin-4-yl)guanidine] are 13.7 nM and 5.9 nM.
Turning to `CCOc1ccc(S(=O)(=O)c2ccc(CNC(=NC#N)Nc3ccncc3)cc2)cc1F` [2-cyano-1-({4-[(4-ethoxy-3-fluorobenzene)sulfonyl]phenyl}methyl)-3-(pyridin-4-yl)guanidine], the IC50 came to 3.2 nM with A2780 cells and 6 nM on NAMPT.
In the same order, the values of `CCOc1ccc(S(=O)(=O)c2ccc(CNC(=NC#N)Nc3ccncc3)cc2)cc1` [2-cyano-1-({4-[(4-ethoxybenzene)sulfonyl]phenyl}methyl)-3-(pyridin-4-yl)guanidine] are 3.3 nM and 5.6 nM.
In the same order, the values of `Cc1cc(F)ccc1S(=O)(=O)c1ccc(CNC(=NC#N)Nc2ccncc2)cc1` [2-cyano-1-({4-[(4-fluoro-2-methylbenzene)sulfonyl]phenyl}methyl)-3-(pyridin-4-yl)guanidine] are 5.4 nM and 5.4 nM.
In the same order, the values of `Cc1cc(S(=O)(=O)c2ccc(CNC(=NC#N)Nc3ccncc3)cc2)ccc1F` [2-cyano-1-({4-[(4-fluoro-3-methylbenzene)sulfonyl]phenyl}methyl)-3-(pyridin-4-yl)guanidine] are 3.9 nM and 3.1 nM.
Turning to `CS(=O)(=O)c1ccc(S(=O)(=O)c2ccc(CNC(=NC#N)Nc3ccncc3)cc2)cc1` [2-cyano-1-({4-[(4-methanesulfonylbenzene)sulfonyl]phenyl}methyl)-3-(pyridin-4-yl)guanidine], the IC50 was 13.1 nM with A2780 cells and 4.5 nM at NAMPT.
For `COc1ccc(S(=O)(=O)c2ccc(CNC(=NC#N)Nc3ccncc3)cc2)cc1C` [2-cyano-1-({4-[(4-methoxy-3-methylbenzene)sulfonyl]phenyl}methyl)-3-(pyridin-4-yl)guanidine] the same measures were 15 nM and 20.4 nM.
For `COc1ccc(S(=O)(=O)c2ccc(CN/C(=N\C#N)Nc3ccncc3)cc2)cc1` [2-cyano-1-({4-[(4-methoxybenzene)sulfonyl]phenyl}methyl)-3-(pyridin-4-yl)guanidine] the same measures were 10 nM and 6.5 nM.
